# Results: PubChem BioAssay AID182 (DTP/NCI, 2004)
# Values joined by “and” are separate entries in the source; they are usually repeats but may differ in a detail not shown here. Equal entries are not always repeated. Inconclusive results and toxic doses are left out.
# Test system: BDF1 mice, P388/ADR leukemia ip, median survival T/C
# Test: NCI In Vivo Anticancer Drug Screen. Data for tumor model P388 Leukemia resistant to Adriamycin; NSC 123127, Developed at Scr 06 and 41 (intraperitoneal) in B6D2F1 (BDF1) mice
# Conditions: endpoint: median survival time, higher = longer survival
# Protocol: The antitumor activity of compounds was measured in mice bearing transplantable tumors. Survival or tumor size were measured and the results are expressed as the measurement made in the treated group (T) divided by the measurement made in the vehicle treated control group (C). The tumor model used in this assay is P388 Leukemia resistant to Adriamycin; NSC 123127, Developed at Scr 06 and 41 (intraperitoneal) in B6D2F1 (BDF1) mice
# [1] = dose: 2.16 mg/kg/injection, schedule: Q04DX003 (ip), vehicle: saline
smiles,measurement,setting,value
CN(Cc1cnc2nc(N)nc(N)c2n1)c1ccc(C(=O)N[C@@H](CCC(=O)O)C(=O)O)cc1,T/C,"dose: 10.8 mg/kg/injection, schedule: Q04DX003 (ip), vehicle: sodium bicarbonate",158 % of control
same,T/C,"dose: 18.0 mg/kg/injection, schedule: Q04DX003 (ip), vehicle: sodium bicarbonate",188 % of control
same,T/C,"dose: 30.0 mg/kg/injection, schedule: Q04DX003 (ip), vehicle: sodium bicarbonate",166 % of control
same,T/C,"dose: 50.0 mg/kg/injection, schedule: Q04DX003 (ip), vehicle: sodium bicarbonate",111 % of control
CC1OC(O[C@H]2/C=C/C=C/C=C/C=C/C=C/C=C/C=C/[C@H](C)[C@@H](O)[C@@H](C)[C@H](C)OC(=O)C[C@H](O)C[C@H](O)CC[C@@H](O)[C@H](O)C[C@H](O)C[C@]3(O)C[C@H](O)[C@@H](C(=O)O)[C@H](C2)O3)C(O)C(N)C1O (stereo not given in full),T/C,"dose: 20.0 mg/kg/injection, schedule: Q04DX003 (ip), vehicle: clinical formulation",93 % of control
COc1cc(O)c2c(c1)C(=O)c1cc3c(c(O)c1C2=O)C(OC1OC(C)C(O)C(O)C1OC)C(OC)C(C)(O)C3=O (stereo not given),T/C,"dose: 25.9 mg/kg/injection, schedule: Q01DX009 (ip), vehicle: Klucel (hydroxypropylcellulose) (HPC)",96 % of control
same,T/C,"dose: 43.2 mg/kg/injection, schedule: Q01DX009 (ip), vehicle: Klucel (hydroxypropylcellulose) (HPC)",96 % of control
same,T/C,"dose: 72.0 mg/kg/injection, schedule: Q01DX009 (ip), vehicle: Klucel (hydroxypropylcellulose) (HPC)",99 % of control
same,T/C,"dose: 108.0 mg/kg/injection, schedule: Q04DX003 (ip), vehicle: Klucel (hydroxypropylcellulose) (HPC)",100 % of control
same,T/C,"dose: 120.0 mg/kg/injection, schedule: Q01DX009 (ip), vehicle: Klucel (hydroxypropylcellulose) (HPC)",103 % of control
same,T/C,"dose: 180.0 mg/kg/injection, schedule: Q04DX003 (ip), vehicle: Klucel (hydroxypropylcellulose) (HPC)",105 % of control
CC[C@](O)(C(=O)O)c1cc2n(c(=O)c1CO)Cc1cc3ccccc3nc1-2,T/C,"dose: 18.0 mg/kg/injection, schedule: Q04DX003 (ip), vehicle: saline",183 % of control
same,T/C,"dose: 30.0 mg/kg/injection, schedule: Q04DX003 (ip), vehicle: saline",209 % of control
same,T/C,"dose: 50.0 mg/kg/injection, schedule: Q04DX003 (ip), vehicle: saline",206 % of control
CC1CC(C)(O)CC(C(O)CC2CC(=O)NC(=O)C2)C1=O (stereo not given),T/C,"dose: 0.72 mg/kg/injection, schedule: Q04DX003 (ip), vehicle: saline",120 % of control
same,T/C,"dose: 0.78 mg/kg/injection, schedule: Q04DX003 (ip), vehicle: saline",124 % of control
same,T/C,[1],91 % of control
same,T/C,"dose: 173.0 micrograms/kg/injection, schedule: Q01DX009 (ip), vehicle: saline",103 % of control
same,T/C,"dose: 288.0 micrograms/kg/injection, schedule: Q01DX009 (ip), vehicle: saline",112 % of control
same,T/C,"dose: 480.0 micrograms/kg/injection, schedule: Q01DX009 (ip), vehicle: saline",92 % of control
CC(=O)C1(O)Cc2c(O)c3c(c(O)c2C(OC2CC(N)C(O)C(C)O2)C1)C(=O)c1ccccc1C3=O (stereo not given),T/C,"dose: 324.0 micrograms/kg/injection, schedule: Q04DX003 (ip), vehicle: water",119 % of control
same,T/C,"dose: 540.0 micrograms/kg/injection, schedule: Q04DX003 (ip), vehicle: water",122 % of control
same,T/C,"dose: 900.0 micrograms/kg/injection, schedule: Q04DX003 (ip), vehicle: water",122 % of control
same,T/C,"dose: 1500.0 micrograms/kg/injection, schedule: Q04DX003 (ip), vehicle: water",98 % of control
CO[C@H](C(=O)[C@@H](O)[C@@H](C)O)[C@@H]1Cc2cc3cc(OC4CC(OC5CC(O)C(O)C(C)O5)C(O)C(C)O4)c(C)c(O)c3c(O)c2C(=O)[C@H]1OC1CC(OC2CC(OC3CC(C)(O)C(O)C(C)O3)C(O)C(C)O2)C(O)C(C)O1 (stereo not given in full),T/C,"dose: 0.32 mg/kg/injection, schedule: Q01DX005 (ip), vehicle: water",91 % of control
same,T/C,"dose: 0.54 mg/kg/injection, schedule: Q01DX005 (ip), vehicle: water",95 % of control
same,T/C,"dose: 0.65 mg/kg/injection, schedule: Q04DX003 (ip), vehicle: water",89 % of control
COc1cccc2c1C(=O)c1c(O)c3c(c(O)c1C2=O)C[C@@](O)(C(=O)CO)C[C@@H]3OC1CC(N)C(O)C(C)O1 (stereo not given in full),T/C,"dose: 0.65 mg/kg/injection, schedule: Q01DX009 (ip), vehicle: saline",107 % of control
same,T/C,"dose: 1.08 mg/kg/injection, schedule: Q01DX009 (ip), vehicle: saline",109 % of control
same,T/C,"dose: 1.3 mg/kg/injection, schedule: Q04DX003 (ip), vehicle: saline",112 % of control
same,T/C,"dose: 1.3 mg/kg/injection, schedule: Q04DX003 (ip), vehicle: water",102 % of control and 115 % of control
same,T/C,"dose: 1.5 mg/kg/injection, schedule: Q04DX003 (ip), vehicle: water",100 % of control
same,T/C,"dose: 1.73 mg/kg/injection, schedule: Q04DX003 (ip), vehicle: water",116 % of control
same,T/C,"dose: 1.8 mg/kg/injection, schedule: Q01DX009 (ip), vehicle: saline",110 % of control
same,T/C,[1],109 % of control
same,T/C,"dose: 2.16 mg/kg/injection, schedule: Q04DX003 (ip), vehicle: water",99 % of control and 120 % of control and 102 % of control
same,T/C,"dose: 2.88 mg/kg/injection, schedule: Q04DX003 (ip), vehicle: water",124 % of control
same,T/C,"dose: 3.0 mg/kg/injection, schedule: Q01DX009 (ip), vehicle: saline",96 % of control
same,T/C,"dose: 3.0 mg/kg/injection, schedule: Q04DX003 (ip), vehicle: water",100 % of control
same,T/C,"dose: 3.6 mg/kg/injection, schedule: Q04DX003 (ip), vehicle: saline",120 % of control
same,T/C,"dose: 3.6 mg/kg/injection, schedule: Q04DX003 (ip), vehicle: water",115 % of control and 122 % of control and 100 % of control
same,T/C,"dose: 4.8 mg/kg/injection, schedule: Q04DX003 (ip), vehicle: water",103 % of control
same,T/C,"dose: 6.0 mg/kg/injection, schedule: Q04DX003 (ip), vehicle: water",99 % of control [middle of 4 runs]
same,T/C,"dose: 10.0 mg/kg/injection, schedule: Q04DX003 (ip), vehicle: water",98 % of control
same,T/C,"dose: 66.7 mg/kg/injection, schedule: Q04DX003 (ip), vehicle: water",96 % of control
COC(=O)[C@@]12OC[C@]34[C@H]([C@@H](O)[C@@H]1O)[C@@]1(C)CC(=O)C(O)=C(C)[C@@H]1C[C@H]3OC(=O)[C@H](OC(=O)/C=C(\C)C(C)C)[C@@H]24,T/C,"dose: 0.65 mg/kg/injection, schedule: Q04DX003 (ip), vehicle: saline + alcohol",113 % of control
same,T/C,"dose: 1.08 mg/kg/injection, schedule: Q04DX003 (ip), vehicle: saline + alcohol",93 % of control and 97 % of control
same,T/C,"dose: 1.8 mg/kg/injection, schedule: Q04DX003 (ip), vehicle: saline + alcohol",86 % of control and 90 % of control
CC(=O)c1cccc(NC2C(N)C(NC(=O)N(C)C)(C(C)O)C(C)(O)C2(O)COC(=O)c2c(C)cccc2O)c1 (stereo not given),T/C,"dose: 5.18 mg/kg/injection, schedule: Q04DX003 (ip), vehicle: alkali diluted with saline",90 % of control
same,T/C,"dose: 6.5 mg/kg/injection, schedule: Q04DX003 (ip), vehicle: alkali diluted with saline",114 % of control
same,T/C,"dose: 8.64 mg/kg/injection, schedule: Q04DX003 (ip), vehicle: alkali diluted with saline",89 % of control
same,T/C,"dose: 14.4 mg/kg/injection, schedule: Q04DX003 (ip), vehicle: alkali diluted with saline",87 % of control
CO[C@H]1Nc2c(ccc(C)c2O)C(=O)N2C=C(/C=C/C(N)=O)C[C@@H]12,T/C,"dose: 216.0 micrograms/kg/injection, schedule: Q04DX003 (ip), vehicle: saline + alcohol",154 % of control
same,T/C,"dose: 252.0 micrograms/kg/injection, schedule: Q04DX003 (ip), vehicle: saline + alcohol",194 % of control
same,T/C,"dose: 360.0 micrograms/kg/injection, schedule: Q04DX003 (ip), vehicle: saline + alcohol",176 % of control
same,T/C,"dose: 420.0 micrograms/kg/injection, schedule: Q04DX003 (ip), vehicle: saline + alcohol",176 % of control
same,T/C,"dose: 600.0 micrograms/kg/injection, schedule: Q04DX003 (ip), vehicle: saline + alcohol",90 % of control
CC[C@@]1(O)C[C@H](OC2CC(N(C)C)C(O)C(C)O2)c2c(cc3c(c2O)C(=O)c2c(O)ccc(O)c2C3=O)[C@H]1C(=O)OC (stereo not given in full),T/C,"dose: 4.32 mg/kg/injection, schedule: Q04DX003 (ip), vehicle: other",110 % of control
same,T/C,"dose: 7.2 mg/kg/injection, schedule: Q04DX003 (ip), vehicle: other",109 % of control
same,T/C,"dose: 12.0 mg/kg/injection, schedule: Q04DX003 (ip), vehicle: other",104 % of control
same,T/C,"dose: 20.0 mg/kg/injection, schedule: Q04DX003 (ip), vehicle: other",110 % of control
Nc1nncs1,T/C,"dose: 173.0 mg/kg/injection, schedule: Q04DX003 (ip), vehicle: other",199 % of control
same,T/C,"dose: 288.0 mg/kg/injection, schedule: Q04DX003 (ip), vehicle: other",90 % of control
CC[C@H]1CN2CCc3cc(OC)c(OC)cc3[C@@H]2C[C@@H]1C[C@@H]1c2cc(OC)c(OC)cc2CCN1CCN(CCCl)CCCl,T/C,"dose: 4.3 mg/kg/injection, schedule: Q04DX003 (ip), vehicle: saline with Tween-80",119 % of control
same,T/C,"dose: 7.2 mg/kg/injection, schedule: Q04DX003 (ip), vehicle: saline with Tween-80",119 % of control
